Square brackets hold non-standard residues; d marks the D form. Ends that are not written are not given here. Peptide text beside a SMILES is read from it.
Key:
streptavidin [1] = target: T1, streptavidin (Streptomyces avidinii, UniProt P22629); assay: SPR analysis of peptide binding to immobilized streptavidin (Biacore X100); conditions: for type of SPR binding kinetics: SPR sensorgrams, immobilized streptavidin
T1 construct: purchased GE Healthcare (Little Chalfont, UK)
Procedure: SPR analysis of peptide binding to streptavidin was performed with streptavidin immobilized on a chip and peptides in solution (see Materials and Methods).
Surface Plasmon Resonance (SPR) experiments were performed using a Biacore X100 instrument (GE Healthcare). 60 µl of 100 µg/ml streptavidin in 10 mM Na-acetate (pH 5.0) was immobilized to flow cell 2 (Fc2) of a sensor chip CM5 (GE Healthcare) using the Amine Coupling Kit (GE Healthcare) at 20 °C for 6 min. Peptide stock solutions were prepared at 5 or 10 mM in H2O and diluted in HBS-EP+ (GE Healthcare) buffer. Peptide binding was performed in a multiple kinetics mode using HBS-EP+ as a running buffer and 0.2 M NaCl, 10 mM NaOH, or 10 mM HCl-glycine (pH 1.7) as the regeneration buffer. Binding kinetics parameters were calculated using Biacore X100 software.

streptavidin [2] = target: T1, streptavidin; assay: Cy5-streptavidin binding on cyclic discovery array, paired cyclic/linear 5-mer L/D-peptides; conditions: Cy5-SA, three independent replicates on the same array, cyclic vs linear features
From the text: To identify cyclic peptide binders to streptavidin, Cy5-SA was bound to an array library of 388,962 5-mer L/D-peptides. The pentameric peptides were composed of a 4-mer peptide synthesized with a combination of uncharged L- and D-amino acids and a γ-Glu: this residue enabled synthesis of both head-to-tail cyclic and linear peptides, respectively, for each peptide through either allyl ester or t-butyl ester C-terminal protection (see Materials and Methods for amino acid composition and cyclization protocol). The paired cyclic and linear array features were spatially positioned side-by-side to control for potential variations in cyclization yield for each peptide. The fluorescence signal intensities across three independent replicates on the same array were compared and the ratio cyclic to linear peptide of signal intensities was compared.
The combined cyclic and linear peptide libraries were synthesized starting with either the allyl ester (OAll) or t-butyl ester, respectively, of N-(2-nitrophenyl)propoxycarbonyl (NPPOC)-protected glutamate (γ-Glu) linked to the array surface through the carboxylic acid side chain. […]
Cy5 fluorescence intensity of the arrays was measured with an MS200 scanner (Roche NimbleGen, Madison, WI) at resolution 2 µm, wavelength 635 nm, gain 25%, and laser intensity 100%. […]

streptavidin [3] = target: T1, streptavidin; assay: Cy5-streptavidin binding on HotSpot discovery array, 5-mer L-peptide library; conditions: for S/B: signal to background ratio
Procedure, shortened: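 Array of 2,476,099 5-mer peptides (19 amino acids, no cysteine) with Gly-Ser linkers, probed overnight at 4 °C with 0.5 µg/ml Cy5-streptavidin in Tris pH 7.4 buffer containing casein or BSA plus Tween-20. Cy5 fluorescence read at 635 nm; peptides selected by signal-to-background >4 across three arrays.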

[4] = 5-mer L-peptide library, from the average of three arrays
[5] = 5-mer L-peptide library array, Cy5-streptavidin, from average of three arrays
[6] = 5-mer L-peptide library array, Cy5-streptavidin, from the average of three arrays
[7] = 5-mer L-peptide library array, Cy5-streptavidin

T1 sequence (P22629 25-183): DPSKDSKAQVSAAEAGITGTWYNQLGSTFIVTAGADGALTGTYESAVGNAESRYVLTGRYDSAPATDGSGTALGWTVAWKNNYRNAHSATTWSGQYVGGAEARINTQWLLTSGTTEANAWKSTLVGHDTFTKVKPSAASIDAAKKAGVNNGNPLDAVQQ

## NC(=O)CC[C@H](NC(=O)[C@H](Cc1c[nH]c2ccccc12)NC(=O)[C@H]1CCCN1C(=O)[C@H](CCC(N)=O)NC(=O)[C@@H](N)CC(N)=O)C(=O)O [NH2-NQpWQ-COOH] (H-NQ[dP]WQ-OH)
Streptavidin [1]; peptide concentrations of ≤2 mM
  binding in SPR: no measurable binding

## NC(=O)CC[C@@H]1NC(=O)[C@H](Cc2c[nH]c3ccccc23)NC(=O)[C@H]2CCCN2C(=O)[C@H](CCC(N)=O)NC(=O)[C@H](CC(N)=O)NC1=O [NQpWQ (head-to-tail cyclic)] (cyclo(NQ[dP]WQ))
Streptavidin [2]
  fluorescence signal intensity on cyclic discovery array: highest fluorescence signal intensity
Streptavidin [1]
  type of SPR binding kinetics: fast on/fast off

## AFPDYLAEYHGG-NH2 [NH2-AFPDYLAEYHGG-amide]
Streptavidin [1]; SPR Kd versus EWVHPQFEQKAK
  fold improvement of Kd over the HPQ peptide also developed in this study: 100 fold
Streptavidin [1]; SPR Kd versus Strep-tag II HPQ
  fold improvement of Kd over Strep-tag II HPQ: 1,000 fold

## EWVHPQFEQKAK-NH2 [NH2-EWVHPQFEQKAK-amide]
Streptavidin [1]
  type of SPR binding kinetics: fast on/fast off

## H-GNSFDDWLASKG-NH2
Streptavidin [1]
  type of SPR binding kinetics: irreversible binding kinetics
Streptavidin [1]; SPR, streptavidin amine-coupled to CM5 chip, peptides in HBS-EP+, steady-state affinity for fast on/fast off peptides, otherwise 1:1 binding model
  equilibrium dissociation constant (Kd): irreversible binding

## SAWSHPQFEK [NH2-SAWSHPQFEK-COOH, reference compound]
Streptavidin [1]
  type of SPR binding kinetics: fast on/fast off

## YHPPQ
Streptavidin [3]; [4]
  S/B (signal to background ratio): 4.7

## YHPQA
Streptavidin [3]; [5]
  S/B (signal to background ratio): 168.4

## YHPQF
Streptavidin [3]; [6]
  S/B (signal to background ratio): 105.0

## YHPQG
Streptavidin [3]; [5]
  S/B (signal to background ratio): 153.3

## YHPQH
Streptavidin [3]; [6]
  S/B (signal to background ratio): 62.5

## YHPQI
Streptavidin [3]; [7]
  S/B: 14.3

## YHPQK
Streptavidin [3]; [5]
  S/B (signal to background ratio): 19.8

## YHPQL
Streptavidin [3]; [7]
  S/B: 6.4

## YHPQM
Streptavidin [3]; [6]
  S/B (signal to background ratio): 77.9

## YHPQN
Streptavidin [3]; [5]
  S/B (signal to background ratio): 176.5

## YHPQQ
Streptavidin [3]; [6]
  S/B (signal to background ratio): 76.2

## YHPQT
Streptavidin [3]; [5]
  S/B (signal to background ratio): 25.8

## YHPQY
Streptavidin [3]; [5]
  S/B (signal to background ratio): 49.3

## YIHPQ
Streptavidin [3]; [5]
  S/B (signal to background ratio): 131.4

## YLHPM
Streptavidin [3]; [6]
  S/B (signal to background ratio): 70.7

## YLHPQ
Streptavidin [3]; [5]
  S/B (signal to background ratio): 152.2

## YMHPQ
Streptavidin [3]; [5]
  S/B (signal to background ratio): 181.7

## YNHPQ
Streptavidin [3]; [5]
  S/B (signal to background ratio): 193.0

## YPHPM
Streptavidin [3]; [6]
  S/B (signal to background ratio): 98.4

## YPHPQ
Streptavidin [3]; [5]
  S/B (signal to background ratio): 190.5

## YQHPM
Streptavidin [3]; [6]
  S/B (signal to background ratio): 84.6

## YQHPQ
Streptavidin [3]; [5]
  S/B (signal to background ratio): 172.3

## YRGHP
Streptavidin [3]; [7]
  S/B: 5.3

## YRHPM
Streptavidin [3]; [6]
  S/B (signal to background ratio): 71.5

## YRHPQ
Streptavidin [3]; [5]
  S/B (signal to background ratio): 185.8

## YSHPM
Streptavidin [3]; [6]
  S/B (signal to background ratio): 69.2

## YSHPQ
Streptavidin [3]; [5]
  S/B (signal to background ratio): 171.8

## YTHPQ
Streptavidin [3]; [5]
  S/B (signal to background ratio): 174.6

## YVHPQ
Streptavidin [3]; [5]
  S/B (signal to background ratio): 145.8

## YWHPM
Streptavidin [3]; [5]
  S/B (signal to background ratio): 54.2

## YWHPQ
Streptavidin [3]; [5]
  S/B (signal to background ratio): 148.0

## YWTDG [L-amino acid 5-mer array peptide]
Streptavidin [3]; [4]
  S/B (signal to background ratio): 4.7
Streptavidin [3]; average of three arrays, L-peptide 5-mer library
  S/B (signal to background ratio): 4.7

## YYHPQ
Streptavidin [3]; [5]
  S/B (signal to background ratio): 190.0
